Values quoted from earlier work, collected in PubChem BioAssay AID1259409 (Chemical Carcinogenesis Research Information System (CCRIS), 2018).

Test system: rodent chemically induced tumor inhibition, incidence and multiplicity
Test: CCRIS tumor inhibitor studies

CC/C(=C(\c1ccccc1)c1ccc(OCCN(C)C)cc1)c1ccccc1
tumour outcome (control, treated, inhibition, significance) (Carcinogen: 1,2-DIMETHYLHYDRAZINE HYDROCHLORIDE, 306-37-6, Dose [Inhibitor]: 0, 0.5 UG/G/D IN DIET FOR 28 WK (STUDY DURATION: 28 WK), Route [Inhibitor]: ORAL, Species: RAT, Strain/Sex: SPRAGUE-DAWLEY/FEMALE, Target Tissue: Type of Lesion: COLON: TUMOR, Dose [Carcinogen]: 20 MG/KG BW 1/WK FOR 28 WK, Promoter: NONE USED): 26/36 (72%), 17/33 (52%), 28%, p<0.001
tumour outcome (control, treated, inhibition, significance) (Carcinogen: 3-METHYLCHOLANTHRENE, 56-49-5, Dose [Inhibitor]: 0, 50 UG/KG FOR DURATION OF STUDY (STUDY DURATION: LIFETIME), Route [Inhibitor]: SUBCUTANEOUS, Species: MOUSE, Strain/Sex: SWISS/FEMALE, Target Tissue: Type of Lesion: CERVIX: CARCINOMA, Dose [Carcinogen]: CARCINOGEN AND BEESWAX (1:3) IMPREGNATED THREAD INSERTED IN THE CANAL OF THE UTERINE CERVIX, Promoter: NONE USED): 60%, 30%, 50%, p<0.01
tumour outcome (control, treated, inhibition, significance) (Carcinogen: 3-METHYLCHOLANTHRENE, 56-49-5, Dose [Inhibitor]: 0, 50 UG/KG GIVEN TO OOPHERECTOMIZED MICE 3/WK FOR DURATION OF STUDY (STUDY DURATION: LIFETIME), Route [Inhibitor]: SUBCUTANEOUS, Species: MOUSE, Strain/Sex: SWISS/FEMALE, Target Tissue: Type of Lesion: CERVIX: CARCINOMA, Dose [Carcinogen]: CARCINOGEN AND BEESWAX (1:3) IMPREGNATED THREAD INSERTED IN THE CANAL OF THE UTERINE CERVIX, Promoter: NONE USED): 62%, 27%, 56%, p<0.01
tumour outcome (control, treated, inhibition, significance) (Carcinogen: 7,12-DIMETHYLBENZ[A]ANTHRACENE (57-97-6), Dose [Inhibitor]: 0.125 MG/KG DIET FOR 17 WKS (STUDY DURATION: 17 WKS), Route [Inhibitor]: DIET, Species: RAT, Strain/Sex: SPRAGUE-DAWLEY/FEMALE (20,18)/(20,18), Target Tissue: Type of Lesion: MAMMARY, Dose [Carcinogen]: 12.5 MG ONCE 1 WK AFTER START OF DIETS (STUDY DURATION: 17 WKS)): 95%, 73%, 23%, p=0.015
tumour outcome (control, treated, inhibition, significance) (Carcinogen: 7,12-DIMETHYLBENZ[A]ANTHRACENE (DMBA) (57-97-6), Dose [Inhibitor]: 50 MG/KG/D FOR 37 WK (STUDY DURATION: 37 WK), Route [Inhibitor]: ORAL GAVAGE, Species: MOUSE, Strain/Sex: SENCAR/FEMALE, Target Tissue: Type of Lesion: MAMMARY: CARCINOMA, Dose [Carcinogen]: 20 UG/D FOR 6 WKS (STUDY DURATION: 37 WKS), Promoter: MEDROXYPROGESTERONE ACETATE (71-58-9)): 10/21 (48%); 0%, 100%, p=0.0004
tumour outcome (control, treated, inhibition, significance) (Carcinogen: 7,12-DIMETHYLBENZ[A]ANTHRACENE (DMBA) [57-97-6], Dose [Inhibitor]: 50 MG/KG/D FOR 52 WK (STUDY DURATION: 52 WK), Route [Inhibitor]: ORAL GAVAGE, Species: MOUSE, Strain/Sex: SENCAR/FEMALE, Target Tissue: Type of Lesion: MAMMARY: CARCINOMA, Dose [Carcinogen]: 20 UG/D FOR 6 WKS, Promoter: MEDROXYPROGESTERONE ACETATE (71-58-9)): 13/23 (57%); 0/20 (0%), 100%, p=0.00003
tumour outcome (control, treated, inhibition, significance) (Carcinogen: 17 BETA-ESTRADIOL, 50-28-2, Dose [Inhibitor]: 25 MG PELLETS CONTAINING 90% TAMOXIFEN ADMINISTERED ONCE AT BEGINNING OF STUDY AND ONCE AT 3.5 MO, ADMINISTERED CONCURRE, Route [Inhibitor]: SUBCUTANEOUS IMPLANT, Species: HAMSTER, Strain/Sex: SYRIAN/MALE, Target Tissue: Type of Lesion: KIDNEY: RENAL CARCINOMA, Dose [Carcinogen]: 25 MG PELLETS CONTAINING 90% ESTRADIOL ONCE AT BEGINNING OF STUDY AND ONCE AT 3.5 MO, Promoter: NONE USED): 3/3 (100%), 2/8 (25%), 75%, not calculated
tumour outcome (control, treated, inhibition, significance) (Carcinogen: ETHYL METHANESULFONATE, 62-50-0, Dose [Inhibitor]: 0, 50 MG/KG 1/WK FOR 4 WK BEGINNING POST CARCINOGEN TREATMENT (STUDY DURATION: 30 WK), Route [Inhibitor]: SUBCUTANEOUS, Species: RAT, Strain/Sex: WISTAR/FEMALE, Target Tissue: Type of Lesion: MAMMARY GLAND: CARCINOMA, Dose [Carcinogen]: 0.01 MOLAR SOLUTION IN DRINKING WATER FOR 12 WK, Promoter: NONE USED): 100%, 100%, 0%, not significant
tumour outcome (control, treated, inhibition, significance) (Carcinogen: ETHYL METHANESULFONATE, 62-50-0, Dose [Inhibitor]: 0, 50 MG/KG 1/WK FOR 4 WK CONCOMITANTLY WITH CARCINOGEN TREATMENT (STUDY DURATION: 30 WK), Route [Inhibitor]: SUBCUTANEOUS, Species: RAT, Strain/Sex: WISTAR/FEMALE, Target Tissue: Type of Lesion: MAMMARY GLAND: CARCINOMA, Dose [Carcinogen]: 0.01 MOLAR SOLUTION IN DRINKING WATER FOR 12 WK, Promoter: NONE USED): 100%, 50%, 50%, p<0.01
tumour outcome (control, treated, inhibition, significance) (Carcinogen: ETHYLNITROSOUREA [759-73-9], Dose [Inhibitor]: 420 MG/K DIET FOR 60 WK (STUDY DURATION: 60 WK), Route [Inhibitor]: DIET, Species: MOUSE, Strain/Sex: B6C3F1/MALE (?,44)/(?,47), Target Tissue: Type of Lesion: LIVER: HEPATOCELLULAR CARCINOMA, Dose [Carcinogen]: 120 UG/KG ONCE): 11/44 (25%), 2/47 (4%), 84%, p<0.001
tumour outcome (control, treated, inhibition, significance) (Carcinogen: N-ETHYL-N'-NITRO-N-NITROSOGUANADINE, 4245-77-6, Dose [Inhibitor]: 0, 70 MG/KG BW IN CHOLESTEROL IMPLANTED 1 WK POST CARCINOGEN DOSE, IMPLANTS REPLACED AT 6 TO 8 WK INTERVALS FOR THE DURA, Route [Inhibitor]: SUBCUTANEOUS IMPLANT, Species: RAT, Strain/Sex: DONRYU/FEMALE, Target Tissue: Type of Lesion: UTERUS: ADENOCARCINOMA, Dose [Carcinogen]: 20 MG/KG BW ONCE, Promoter: NONE USED): 9/29 (31%), 0/30 (0%), 100%, not calculated
tumour outcome (control, treated, inhibition, significance) (Carcinogen: N-ETHYL-N'-NITRO-N-NITROSOGUANADINE, 4245-77-6, Dose [Inhibitor]: 0, 70 MG/KG BW IN CHOLESTEROL IMPLANTED 20 WKS POST CARCINOGEN DOSE, IMPLANTS REPLACED AT 6 TO 8 WK INTERVALS FOR DURATI, Route [Inhibitor]: SUBCUTANEOUS IMPLANT, Species: RAT, Strain/Sex: DONYRU/FEMALE, Target Tissue: Type of Lesion: UTERUS: ADENOCARCINOMA, Dose [Carcinogen]: 20 MG/KG BW ONCE, Promoter: NONE USED): 9/29 (31%), 0/29 (0%), 100%, not calculated
tumour outcome (control, treated, inhibition, significance) (Carcinogen: N-METHYL-N'-NITROSOUREA, 684-93-5, Dose [Inhibitor]: 0, 0.125 MG/KG IN DIET FOR DURATION OF STUDY BEGINNING 60 D PRIOR TO CARCINOGEN DOSE (STUDY DURATION: 240 D), Route [Inhibitor]: ORAL, Species: RAT, Strain/Sex: SPRAGUE-DAWLEY/FEMALE, Target Tissue: Type of Lesion: MAMMARY GLAND: TUMOR, Dose [Carcinogen]: 50 MG/KG BW ONCE, Promoter: NONE USED): 68%, 62%, 9%, not significant
tumour outcome (control, treated, inhibition, significance) (Carcinogen: N-METHYL-N'-NITROSOUREA, 684-93-5, Dose [Inhibitor]: 0, 0.25 MG/KG IN DIET FOR DURATION OF STUDY BEGINNING 60 D PRIOR TO CARCINOGEN DOSE (STUDY DURATION: 240 D), Route [Inhibitor]: ORAL, Species: RAT, Strain/Sex: SPRAGUE-DAWLEY/FEMALE, Target Tissue: Type of Lesion: MAMMARY GLAND: TUMOR, Dose [Carcinogen]: 50 MG/KG BW ONCE, Promoter: NONE USED): 80%, 25%, 69%, p<0.005
tumour outcome (control, treated, inhibition, significance) (Carcinogen: N-METHYL-N-NITROSOUREA, 684-93-5, Dose [Inhibitor]: 0, 0.2 MG/KG IN DIET FOR THE DURATION OF STUDY BEGINNING 7 D PRIOR TO CARCINOGEN DOSE (STUDY DURATION: 187 D), Route [Inhibitor]: ORAL, Species: RAT, Strain/Sex: SPRAGUE-DAWLEY/FEMALE, Target Tissue: Type of Lesion: MAMMARY GLAND: TUMOR, Dose [Carcinogen]: 50 MG/KG BW ONCE, Promoter: NONE USED): 100%, 100%, 0%, not significant
